US20240025906A1 (NEURON23, INC., priority 2022, published 2024)

Assays:
TYK2 JH2 = biological target: T1, TYK2 JH2 (Homo sapiens, UniProt P29597); assay: TYK2 JH2 binding assay (KINOMEscan KdELECT competitive binding); settings: TYK2 JH2 domain, KINOMEscan KdELECT (Assay A); read-out: Biochemical TYK2_DiscoverX_JH2_BND_Kd
T1 construct: purchased DiscoverX (KINOMEscan KdELECT service); host or cells: E. coli BL21-derived (T7 phage display) or HEK-293
How it was run: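 JH2-domain fragment, expressed as T7 phage tag in BL21-derived E. coli or DNA-tagged from HEK-293, competed with test compound against bead-immobilized biotinylated ligand in binding buffer (0.9% DMSO). 1 h shaking at room temperature; bound kinase eluted with 0.5 μM free ligand and quantified by qPCR. Kd from 11-point 3-fold dilutions.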

[1] = system: JAK1/TYK2 pSTAT5 (Tyr694/699) in THP-1 cell line; assay: IFNa-stimulated JAK1/TYK2 pSTAT5 (Tyr694/699) inhibition cellular assay, AlphaLISA; type: cell-based; settings: Homo sapiens; THP-1 cells, IFNa-stimulated, AlphaLISA (Assay B); read-out: Cellular_THP1_IFNa-pSTATS_TYK2
How it was run: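 The readout is AlphaLISA signal at 615 nm for phospho-STAT5 in THP-1 lysates after IFNa stimulation (added at 100 ng/mL, 30 min, 37 °C). Cells had compound for 1 h beforehand across eight 6-fold concentrations up to 10000 nM final. IC50s are 4PL fits with bottom and Hill slope constrained.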

T1 sequence (P29597 589-875 limits assumed): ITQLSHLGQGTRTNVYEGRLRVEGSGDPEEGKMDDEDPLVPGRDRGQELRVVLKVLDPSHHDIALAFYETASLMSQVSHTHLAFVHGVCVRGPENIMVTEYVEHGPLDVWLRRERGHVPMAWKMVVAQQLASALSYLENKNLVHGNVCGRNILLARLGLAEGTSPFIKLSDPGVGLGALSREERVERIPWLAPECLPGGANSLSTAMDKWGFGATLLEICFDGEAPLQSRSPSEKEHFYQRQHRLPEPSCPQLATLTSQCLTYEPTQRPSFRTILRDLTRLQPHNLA

Row | SMILES | Kd (TYK2 JH2) | IC50 [1]
1 | CNc1ncc(-c2nc3cc([C@]4(C)CCCO4)ccc3o2)c2cc(NC(=O)C3CC3)ncc12 [Example 948, (S)—N-(8-(methylamino)-5-(5-(2-methyltetrahydrofuran-2-yl)benzo[d]oxazol-2-yl)-2,7-naphthyridin-3-yl)cyclopropanecarboxamide] | ≤ 100 nM | ≤ 500 nM
2 | CNc1ncc(C#Cc2ncccn2)c2cc(NC(=O)C3CC3)ncc12 [Example 950, N-(8-(methylamino)-5-(pyrimidin-2-ylethynyl)-2,7-naphthyridin-3-yl)cyclopropanecarboxamide] | ≤ 100 nM | ≤ 500 nM
3 | CNc1ncc(C#Cc2ccc(N3CCOCC3)cn2)c2cc(NC(=O)C3CC3)ncc12 [Example 951, N-(8-(methylamino)-5-((5-morpholinopyridin-2-yl)ethynyl)-2,7-naphthyridin-3-yl)cyclopropanecarboxamide] | ≤ 100 nM | ≤ 500 nM
4 | CNc1ncc(C#Cc2ccc(-n3ccnn3)cn2)c2cc(NC(=O)C3CC3)ncc12 [Example 952, N-(5-((5-(1H-1,2,3-triazol-1-yl)pyridin-2-yl)ethynyl)-8-(methylamino)-2,7-naphthyridin-3-yl)cyclopropanecarboxamide] | ≤ 100 nM | ≤ 500 nM
5 | CNc1ncc(C#Cc2ccc(-n3nccn3)cn2)c2cc(NC(=O)C3CC3)ncc12 [Example 953, N-(5-((5-(2H-1,2,3-triazol-2-yl)pyridin-2-yl)ethynyl)-8-(methylamino)-2,7-naphthyridin-3-yl)cyclopropanecarboxamide] | ≤ 100 nM | ≤ 500 nM
6 | CNc1ncc(C#Cc2ccc(-n3cccn3)cn2)c2cc(NC(=O)C3CC3)ncc12 [Example 954, N-(5-((5-(1H-pyrazol-1-yl)pyridin-2-yl)ethynyl)-8-(methylamino)-2,7-naphthyridin-3-yl)cyclopropanecarboxamide] | ≤ 100 nM | ≤ 500 nM
7 | CNc1ncc(C#Cc2ncccc2C2CC2)c2cc(NC(=O)C3CC3)ncc12 [Example 955, N-(5-((3-cyclopropylpyridin-2-yl)ethynyl)-8-(methylamino)-2,7-naphthyridin-3-yl)cyclopropanecarboxamide] | ≤ 100 nM | ≤ 500 nM
8 | CNc1ncc(C#Cc2ccc3c(c2)CCNC3)c2cc(NC(=O)C3CC3)ncc12 [Example 956, N-(8-(methylamino)-5-((1,2,3,4-tetrahydroisoquinolin-6-yl)ethynyl)-2,7-naphthyridin-3-yl)cyclopropanecarboxamide] | ≤ 100 nM | ≤ 500 nM
9 | CNc1ncc(C#Cc2ccc(-c3cnn(C)n3)cc2)c2cc(NC(=O)C3CC3)ncc12 [Example 957, N-(5-((4-(2-methyl-2H-1,2,3-triazol-4-yl)phenyl)ethynyl)-8-(methylamino)-2,7-naphthyridin-3-yl)cyclopropanecarboxamide] | ≤ 100 nM | ≤ 500 nM
10 | CNc1ncc(C#CC23CC(OC)(C2)C3)c2cc(NC(=O)C3CC3)ncc12 [Example 958, N-(5-((3-methoxybicyclo[1.1.1]pentan-1-yl)ethynyl)-8-(methylamino)-2,7-naphthyridin-3-yl)cyclopropanecarboxamide] | ≤ 100 nM | ≤ 500 nM
11 | CNc1ncc(C#Cc2sc(C(C)=O)cc2C)c2cc(NC(=O)C3CC3)ncc12 [Example 959, N-(5-((5-acetyl-3-methylthiophen-2-yl)ethynyl)-8-(methylamino)-2,7-naphthyridin-3-yl)cyclopropanecarboxamide] | ≤ 100 nM | ≤ 500 nM
12 | CNc1ncc(C#Cc2sccc2CO)c2cc(NC(=O)C3CC3)ncc12 [Example 960, N-(5-((3-(hydroxymethyl)thiophen-2-yl)ethynyl)-8-(methylamino)-2,7-naphthyridin-3-yl)cyclopropanecarboxamide] | ≤ 100 nM | ≤ 500 nM
13 | CCc1nc(C)c(C#Cc2cnc(NC)c3cnc(NC(=O)C4CC4)cc23)s1 [Example 961, N-(5-((2-ethyl-4-methylthiazol-5-yl)ethynyl)-8-(methylamino)-2,7-naphthyridin-3-yl)cyclopropanecarboxamide] | ≤ 100 nM | ≤ 500 nM
14 | CNc1ncc(C#Cc2ccc(-n3c(=O)ccn3C)cc2)c2cc(NC(=O)C3CC3)ncc12 [Example 962, N-[8-(methylamino)-5-[2-[4-(2-methyl-5-oxo-pyrazol-1-yl)phenyl]ethynyl]-2,7-naphthyridin-3-yl]cyclopropanecarboxamide] | ≤ 100 nM | ≤ 500 nM
15 | CNc1ncc(C#Cc2ncc(OC)cc2CF)c2cc(NC(=O)C3CC3)ncc12 [Example 963, N-[5-[2-[3-(fluoromethyl)-5-methoxy-2-pyridyl]ethynyl]-8-(methylamino)-2,7-naphthyridin-3-yl]cyclopropanecarboxamide] | ≤ 100 nM | ≤ 500 nM
16 | CNc1ncc(C#Cc2ccc(COC)cn2)c2cc(NC(=O)C3CC3)ncc12 [Example 964, N-[5-[2-[5-(methoxymethyl)-2-pyridyl]ethynyl]-8-(methylamino)-2,7-naphthyridin-3-yl]cyclopropanecarboxamide] | ≤ 100 nM | ≤ 500 nM
17 | CNc1ncc(C#Cc2ccc(OC)cc2CO)c2cc(NC(=O)C3CC3)ncc12 [Example 965, N-[5-[2-[2-(hydroxymethyl)-4-methoxy-phenyl]ethynyl]-8-(methylamino)-2,7-naphthyridin-3-yl]cyclopropanecarboxamide] | ≤ 100 nM | ≤ 500 nM
18 | CNc1ncc(C#Cc2ccc(Oc3nccn3C)cc2)c2cc(NC(=O)C3CC3)ncc12 [Example 966, N-(5-((4-((1-methyl-1H-imidazol-2-yl)oxy)phenyl)ethynyl)-8-(methylamino)-2,7-naphthyridin-3-yl)cyclopropanecarboxamide] | ≤ 100 nM | ≤ 500 nM
19 | CNc1ncc(C#Cc2ncc(OC)cc2CO)c2cc(NC(=O)C3CC3)ncc12 [Example 967, N-[5-[2-[3-(hydroxymethyl)-5-methoxy-2-pyridyl]ethynyl]-8-(methylamino)-2,7-naphthyridin-3-yl]cyclopropanecarboxamide] | ≤ 100 nM | ≤ 500 nM
20 | CNc1ncc(C#Cc2cc3sc(C)cc3cn2)c2cc(NC(=O)C3CC3)ncc12 [Example 968, N-[8-(methylamino)-5-[2-(2-methylthieno[3,2-c]pyridin-6-yl)ethynyl]-2,7-naphthyridin-3-yl]cyclopropanecarboxamide] | ≤ 100 nM | ≤ 500 nM
21 | CNc1ncc(C#Cc2ccc(N3CCOCC3)cc2F)c2cc(NC(=O)C3CC3)ncc12 [Example 969, N-[5-[2-(2-fluoro-4-morpholino-phenyl)ethynyl]-8-(methylamino)-2,7-naphthyridin-3-yl]cyclopropanecarboxamide] | ≤ 100 nM | ≤ 500 nM
22 | CNc1ncc(C#Cc2ccc(Oc3cn(C)c(C)n3)cc2)c2cc(NC(=O)C3CC3)ncc12 [Example 970, N-(5-((4-((1,2-dimethyl-1H-imidazol-4-yl)oxy)phenyl)ethynyl)-8-(methylamino)-2,7-naphthyridin-3-yl)cyclopropanecarboxamide] | ≤ 100 nM | ≤ 500 nM
23 | CNc1ncc(C#Cc2ccc(Oc3ccn(C)n3)cc2)c2cc(NC(=O)C3CC3)ncc12 [Example 971, N-[8-(methylamino)-5-[2-[4-(1-methylpyrazol-3-yl)oxyphenyl]ethynyl]-2,7-naphthyridin-3-yl]cyclopropanecarboxamide] | ≤ 100 nM | ≤ 500 nM
